Experimental data taken from patent US5593984A, “Cephalosporin derivatives” (Yuhan Corporation, priority 1992, dated 1997).
In brackets after ≈: the same amount, converted by molar mass.

How the values were obtained:
Format in all cases: cell-based
Staph. aureus Smith = test: MIC by agar dilution, Staph. aureus Smith; conditions: Staphylococcus aureus, 17 h, Mueller-Hinton agar, read-out: Minimal Inhibitory Concentration (MIC)
Summary of the method: (§1)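 Growth inhibition was scored after 17±1 hours at 35°-37° C. on Mueller-Hinton agar bearing twofold compound dilutions, with strains seeded at 10^6 CFU per ml; lowest inhibiting level taken as MIC.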

Ent. cloacae IFO 13535 = test: MIC by agar dilution, Ent. cloacae IFO 13535; conditions: Enterobacter cloacae, IFO13535, 17 h; Ent. cloacae IFO 13535; agar dilution, Mueller-Hinton agar; read-out: Minimal Inhibitory Concentration (MIC)
Summary of the method: as §1

[1] = tested on: Ser. marcescens IFO 12648; test: MIC by agar dilution, Ser. marcescens IFO 12648; conditions: Serratia marcescens, IFO12648, 17 h; Ser. marcescens IFO 12648; agar dilution, Mueller-Hinton agar; read-out: Minimal Inhibitory Concentration (MIC)
Summary of the method: as §1

E. coli No. 29 = test: MIC by agar dilution, E. coli No. 29; conditions: Escherichia coli, 17 h; E. coli No. 29; agar dilution, Mueller-Hinton agar; read-out: Minimal Inhibitory Concentration (MIC)
Summary of the method: as §1

[2] = tested on: Ps. aeruginosa ATCC 10145; test: MIC by agar dilution, Ps. aeruginosa ATCC 10145; conditions: Pseudomonas aeruginosa, ATCC10145, 17 h, Mueller-Hinton agar, read-out: Minimal Inhibitory Concentration (MIC)
Summary of the method: as §1

P. vulgaris NCTC 8313 = test: MIC by agar dilution, P. vulgaris NCTC 8313; conditions: Proteus vulgaris, NCTC8313, 17 h; P. vulgaris NCTC 8313; agar dilution, Mueller-Hinton agar; read-out: Minimal Inhibitory Concentration (MIC)
Summary of the method: as §1

Staph. aureus ATCC 6538P = test: MIC by agar dilution, Staph. aureus ATCC 6538P; conditions: Staphylococcus aureus, ATCC6538P, 17 h; Staph. aureus ATCC 6538P; agar dilution, Mueller-Hinton agar; read-out: Minimal Inhibitory Concentration (MIC)
Summary of the method: as §1

Staph. aureus C-5216 = test: MIC by agar dilution, Staph. aureus C-5216; conditions: Staphylococcus aureus, C5216, 17 h, Mueller-Hinton agar, read-out: Minimal Inhibitory Concentration (MIC)
Summary of the method: as §1

M. morganii DY-1 = test: MIC by agar dilution, M. morganii DY-1; conditions: Morganella morganii, DY1, 17 h; M. morganii DY-1; agar dilution, Mueller-Hinton agar; read-out: Minimal Inhibitory Concentration (MIC)
Summary of the method: as §1

E. coli DY-1 = test: MIC by agar dilution, E. coli DY-1; conditions: Escherichia coli, DY1, 17 h; E. coli DY-1; agar dilution, Mueller-Hinton agar; read-out: Minimal Inhibitory Concentration (MIC)
Summary of the method: as §1

Ps. aeruginosa DY-2 = test: MIC by agar dilution, Ps. aeruginosa DY-2; conditions: Pseudomonas aeruginosa, DY2, 17 h; Ps. aeruginosa DY-2; agar dilution, Mueller-Hinton agar; read-out: Minimal Inhibitory Concentration (MIC)
Summary of the method: as §1

Ent. aerogenes IFO 12979 = test: MIC by agar dilution, Ent. aerogenes IFO 12979; conditions: Klebsiella aerogenes, IFO12979, 17 h, Mueller-Hinton agar, read-out: Minimal Inhibitory Concentration (MIC)
Summary of the method: as §1

Staph. aureus C-57 = test: MIC by agar dilution, Staph. aureus C-57; conditions: Staphylococcus aureus, C57, 17 h, Mueller-Hinton agar, read-out: Minimal Inhibitory Concentration (MIC)
Summary of the method: as §1

K. pneumoniae NCTC 9632 = test: MIC by agar dilution, K. pneumoniae NCTC 9632; conditions: Klebsiella pneumoniae, NCTC9632, 17 h; K. pneumoniae NCTC 9632; agar dilution, Mueller-Hinton agar; read-out: Minimal Inhibitory Concentration (MIC)
Summary of the method: as §1

E. coli NIHJ JC-2 = test: MIC by agar dilution, E. coli NIHJ JC-2; conditions: Escherichia coli, NIHJJC2, 17 h; E. coli NIHJ JC-2; agar dilution, Mueller-Hinton agar; read-out: Minimal Inhibitory Concentration (MIC)
Summary of the method: as §1

B. subtilis ATCC 6633 = test: MIC by agar dilution, B. subtilis ATCC 6633; conditions: Bacillus subtilis, ATCC6633, 17 h; B. subtilis ATCC 6633; agar dilution, Mueller-Hinton agar; read-out: Minimal Inhibitory Concentration (MIC)
Summary of the method: as §1

[3] = tested on: Ps. aeruginosa NCTC 10490; test: MIC by agar dilution, Ps. aeruginosa NCTC 10490; conditions: Pseudomonas aeruginosa, NCTC10490, 17 h, Mueller-Hinton agar, read-out: Minimal Inhibitory Concentration (MIC)
Summary of the method: as §1

Staph. aureus C-5113 = test: MIC by agar dilution, Staph. aureus C-5113; conditions: Staphylococcus aureus, C5113, 17 h, Mueller-Hinton agar, read-out: Minimal Inhibitory Concentration (MIC)
Summary of the method: as §1

Prov. stuartii IFO 12930 = test: MIC by agar dilution, Prov. stuartii IFO 12930; conditions: Providencia stuartii, IFO12930, 17 h, Mueller-Hinton agar, read-out: Minimal Inhibitory Concentration (MIC)
Summary of the method: as §1

[4] = tested on: S. epidermidis ATCC 12228; test: MIC by agar dilution, S. epidermidis ATCC 12228; conditions: Staphylococcus epidermidis, ATCC12228, 17 h; S. epidermidis ATCC 12228; agar dilution, Mueller-Hinton agar; read-out: Minimal Inhibitory Concentration (MIC)
Summary of the method: as §1

| Structure (SMILES) | MIC (Staph. aureus Smith) [µg/mL] | MIC (Ent. cloacae IFO 13535) [µg/mL] | MIC [1] [µg/mL] | MIC (E. coli No. 29) [µg/mL] | MIC [2] [µg/mL] | MIC (P. vulgaris NCTC 8313) [µg/mL] | MIC (Staph. aureus ATCC 6538P) [µg/mL] | MIC (Staph. aureus C-5216) [µg/mL] | MIC (M. morganii DY-1) [µg/mL] | MIC (E. coli DY-1) [µg/mL] | MIC (Ps. aeruginosa DY-2) [µg/mL] | MIC (Ent. aerogenes IFO 12979) [µg/mL] | MIC (Staph. aureus C-57) [µg/mL] | MIC (K. pneumoniae NCTC 9632) [µg/mL] | MIC (E. coli NIHJ JC-2) [µg/mL] | MIC (B. subtilis ATCC 6633) [µg/mL] | MIC [3] [µg/mL] | MIC (Staph. aureus C-5113) [µg/mL] | MIC (Prov. stuartii IFO 12930) [µg/mL] | MIC [4] [µg/mL] |
| --- | --- | --- | --- | --- | --- | --- | --- | --- | --- | --- | --- | --- | --- | --- | --- | --- | --- | --- | --- | --- |
| CCc1c[n+](CC2=C(C(=O)[O-])N3C(=O)[C@@H](NC(=O)/C(=N\OC)c4csc(N)n4)[C@H]3SC2)cc2cccn12 [Ex. 37, 7-β-[(Z)-2-(2-aminothiazol-4-yl)-2-methoxyiminoacetamido]-3-(4-ethylpyrrolo[1,2-a]pyrazinium-2-yl)methyl-3-cephem-4-carboxylate] | 0.2 (≈ 0.369 µM) | 0.2 (≈ 0.369 µM) | 0.012 (≈ 0.0222 µM) | ≤ 0.006 | 3.13 (≈ 5.78 µM) | 0.012 (≈ 0.0222 µM) | 0.1 (≈ 0.185 µM) | 0.78 (≈ 1.44 µM) | 0.025 (≈ 0.0462 µM) | ≤ 0.006 | 6.25 (≈ 11.5 µM) | 0.012 (≈ 0.0222 µM) | 25 (≈ 46.2 µM) | 0.012 (≈ 0.0222 µM) | 0.012 (≈ 0.0222 µM) | 0.2 (≈ 0.369 µM) | 0.78 (≈ 1.44 µM) | 1.56 (≈ 2.88 µM) | 0.012 (≈ 0.0222 µM) | 0.2 (≈ 0.369 µM) |
| CCO/N=C(\C(=O)N[C@@H]1C(=O)N2C(C(=O)[O-])=C(C[n+]3cc(CC)n4cccc4c3)CS[C@H]12)c1csc(N)n1 [Ex. 38, 7-β-[(Z)-2-(2-aminothiazol-4-yl)-2-ethoxyiminoacetamido]-3-(4-ethylpyrrolo[1,2-a]pyrazinium-2-yl)methyl-3-cephem-4-carboxylate] | 0.39 (≈ 0.702 µM) | 0.2 (≈ 0.36 µM) | 0.05 (≈ 0.09 µM) | ≤ 0.006 | 3.13 (≈ 5.63 µM) | 0.012 (≈ 0.0216 µM) | 0.2 (≈ 0.36 µM) | 1.56 (≈ 2.81 µM) | 0.05 (≈ 0.09 µM) | ≤ 0.006 | 3.13 (≈ 5.63 µM) | 0.025 (≈ 0.045 µM) | 12.5 (≈ 22.5 µM) | 0.05 (≈ 0.09 µM) | 0.05 (≈ 0.09 µM) | 0.2 (≈ 0.36 µM) | 0.78 (≈ 1.4 µM) | 1.56 (≈ 2.81 µM) | 0.05 (≈ 0.09 µM) | 0.1 (≈ 0.18 µM) |
| CO/N=C(\C(=O)N[C@@H]1C(=O)N2C(C(=O)[O-])=C(C[n+]3cc(C(=O)O)n4cccc4c3)CS[C@H]12)c1csc(N)n1 [Ex. 39, 7-β-[(Z)-2-(2-aminothiazol-4-yl)-2-methoxyiminoacetamido]-3-(4-carboxypyrrolo[1,2-a]pyrazinium-2-yl)methyl-3-cephem-4-carboxylate] | 1.56 (≈ 2.8 µM) | 0.012 (≈ 0.0215 µM) | ≤ 0.006 | ≤ 0.006 | 0.78 (≈ 1.4 µM) | ≤ 0.006 | 0.39 (≈ 0.699 µM) | 1.56 (≈ 2.8 µM) | ≤ 0.006 | ≤ 0.006 | 6.25 (≈ 11.2 µM) | ≤ 0.006 | 50 (≈ 89.7 µM) | ≤ 0.006 | ≤ 0.006 | 0.2 (≈ 0.359 µM) | 0.2 (≈ 0.359 µM) | 1.56 (≈ 2.8 µM) | ≤ 0.006 | 0.05 (≈ 0.0897 µM) |
| CO/N=C(\C(=O)N[C@@H]1C(=O)N2C(C(=O)[O-])=C(C[n+]3ccn4cccc4c3C)CS[C@H]12)c1csc(N)n1 [Ex. 40, 7-β-[(Z)-2-(2-aminothiazol-4-yl)-2-methoxylminoacetamido]-3-(1-methylpyrrolo[1,2-a]pyrazinium-2-yl)methyl-3-cephem-4-carboxylate] | 0.2 (≈ 0.379 µM) | 0.025 (≈ 0.0474 µM) | 0.012 (≈ 0.0227 µM) | ≤ 0.006 | 0.78 (≈ 1.48 µM) | 0.012 (≈ 0.0227 µM) | 0.05 (≈ 0.0948 µM) | 0.78 (≈ 1.48 µM) | 0.012 (≈ 0.0227 µM) | ≤ 0.006 | 3.13 (≈ 5.93 µM) | 0.012 (≈ 0.0227 µM) | 12.5 (≈ 23.7 µM) | ≤ 0.006 | 0.012 (≈ 0.0227 µM) | 0.1 (≈ 0.19 µM) | 0.39 (≈ 0.739 µM) | 0.78 (≈ 1.48 µM) | ≤ 0.006 | 0.05 (≈ 0.0948 µM) |
